Experiments:
Format in all cases: cell-based
5-HT2C = molecular target: T1, 5-HT2C (Homo sapiens, UniProt P28335); assay: FLIPR Ca2+ flux functional assay, 5-HT2C (HEK293); conditions: HEK293 cells expressing 5-HT2C; for Emax: HEK293, agonist activity; for EC50: agonist activity
T1 construct: host or cells: HEK293
T1 sequence (P28335 33-458): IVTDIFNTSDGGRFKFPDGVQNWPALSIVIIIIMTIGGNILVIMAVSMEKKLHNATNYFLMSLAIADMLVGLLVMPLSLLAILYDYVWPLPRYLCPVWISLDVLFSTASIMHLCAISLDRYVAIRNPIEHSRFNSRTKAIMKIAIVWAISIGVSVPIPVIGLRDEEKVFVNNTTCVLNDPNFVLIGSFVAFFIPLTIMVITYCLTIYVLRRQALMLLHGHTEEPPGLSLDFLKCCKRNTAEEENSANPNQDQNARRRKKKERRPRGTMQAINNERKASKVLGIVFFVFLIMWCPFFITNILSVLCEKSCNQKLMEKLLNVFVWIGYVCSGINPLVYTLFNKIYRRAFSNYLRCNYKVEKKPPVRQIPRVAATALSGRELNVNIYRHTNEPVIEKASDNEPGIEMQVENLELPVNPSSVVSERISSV

5-HT2A = molecular target: T2, 5-HT2A (Homo sapiens, UniProt P28223); assay: FLIPR Ca2+ flux functional assay, 5-HT2A (HEK293); conditions: HEK293 cells expressing 5-HT2A; for Emax: HEK293, agonist activity; for EC50: agonist activity
T2 construct: host or cells: HEK293

5-HT2B = molecular target: T3, 5-HT2B (Homo sapiens, UniProt P41595); assay: Activation in a similar Ca2+ flux assay at a single concentration, 5-HT2B; conditions: head prints 10 µM
T3 construct: host or cells: CHO-K1
Procedure: Activity at 5-HT2A, 5-HT2B and 5-HT2C receptors was determined using a FLIPR Ca2+ flux assay at WuXi AppTec Co. Ltd. (Hong Kong) Discovery Biology Unit according to their standard protocols. Briefly, stably transfected cells expressing the receptor of interest (HEK293 for 5-HT2A and 5-HT2C; CHO-K1 for 5-HT2B) were grown and plated in a 384 well plate and incubated at 37° C. and 5% CO2 overnight. A 250 mM stock solution of probenecid in FLIPR calcium assay buffer (10 mL) was freshly prepared and combined with a fluorescent dye (Fluo-4 Direct) to give a final assay concentration of 2.5 mM. Reference compounds were 4-fold serially diluted and the screening compounds were 3-fold serially diluted in 100% DMSO for 10 points using Agilent Bravo, and 750 nL was added to a 384 well compound plate using Echo along with 30 μL assay buffer. The fluorescent dye was then added to the assay plate along with assay buffer to a final volume of 40 μL. The cell plate was incubated for 50 min at 37° C. and 5% CO2 and placed into the FLIPR Tetra along with the compound plate. 10 μL of references and compounds were then transferred from the compound plate into the cell plate and the fluorescent signal was read.
Activation data are provided in a similar assay tested at a single 10 μM concentration.

T2 sequence (P28223 whole entry): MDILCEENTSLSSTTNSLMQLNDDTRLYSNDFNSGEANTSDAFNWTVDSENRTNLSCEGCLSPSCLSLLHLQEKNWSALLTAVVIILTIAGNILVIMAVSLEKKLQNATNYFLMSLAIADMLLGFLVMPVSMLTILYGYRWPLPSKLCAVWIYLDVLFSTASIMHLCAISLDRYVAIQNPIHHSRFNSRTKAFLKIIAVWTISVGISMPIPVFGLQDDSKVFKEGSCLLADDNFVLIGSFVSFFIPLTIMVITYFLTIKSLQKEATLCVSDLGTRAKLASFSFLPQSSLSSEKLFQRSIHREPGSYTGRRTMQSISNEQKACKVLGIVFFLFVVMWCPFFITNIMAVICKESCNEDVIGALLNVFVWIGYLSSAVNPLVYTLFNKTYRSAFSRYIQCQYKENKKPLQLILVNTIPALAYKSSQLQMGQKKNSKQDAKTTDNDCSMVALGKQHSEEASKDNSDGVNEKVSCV
T3 sequence (P41595 whole entry, species assumed): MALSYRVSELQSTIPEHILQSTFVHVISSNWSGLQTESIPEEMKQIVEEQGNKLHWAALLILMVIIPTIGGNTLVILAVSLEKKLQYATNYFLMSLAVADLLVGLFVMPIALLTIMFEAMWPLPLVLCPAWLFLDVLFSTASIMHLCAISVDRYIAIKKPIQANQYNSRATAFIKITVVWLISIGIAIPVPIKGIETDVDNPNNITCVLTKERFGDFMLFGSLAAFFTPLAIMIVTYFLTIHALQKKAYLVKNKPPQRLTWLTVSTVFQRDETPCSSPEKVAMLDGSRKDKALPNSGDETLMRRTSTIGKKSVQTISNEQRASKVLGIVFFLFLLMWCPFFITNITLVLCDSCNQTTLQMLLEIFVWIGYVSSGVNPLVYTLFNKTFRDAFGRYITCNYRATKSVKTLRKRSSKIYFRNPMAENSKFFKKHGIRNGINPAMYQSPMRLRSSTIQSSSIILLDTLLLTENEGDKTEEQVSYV

Row | SMILES | Emax (5-HT2C) [%] | EC50 (5-HT2C) [nM] | Emax (5-HT2A) [%] | EC50 (5-HT2A) [nM] | 5-HT2B % Activation @ 10 µM (5-HT2B) [%]
1 | COc1ccc(F)c2[nH]nc(CCN(C)C(C)C)c12 [Example A46, N-(2-(7-fluoro-4-methoxy-1H-indazol-3-yl)ethyl)-N-methylpropan-2-amine] | 0 | > 10000 | 74 | 133 | 0
2 | COc1cc(F)c2[nH]nc(CCN3CCC3)c2c1 [Example A53, 3-(2-(azetidin-1-yl)ethyl)-7-fluoro-5-methoxy-1H-indazole] | 48 | 1180 | 94 | 318 | 0
3 | CCN(C)CCc1n[nH]c2c(F)cccc12 [Example A68, N-ethyl-2-(7-fluoro-1H-indazol-3-yl)-N-methylethan-1-amine] | 32 | 1920 | 40 | 469 | 0
4 | COc1cc2c(CCN3CC(C)C3)n[nH]c2cc1F [Example A57, 6-fluoro-5-methoxy-3-(2-(3-methylazetidin-1-yl)ethyl)-1H-indazole] | 3 | > 10000 | 70 | 610 | 0
5 | CCN(C)CCc1n[nH]c2c(F)cc(OC)cc12 [Example A51, N-ethyl-2-(7-fluoro-5-methoxy-1H-indazol-3-yl)-N-methylethan-1-amine] | 43 | 1370 | 85 | 88 | 1
6 | CCN(C)CCc1n[nH]c2cc(F)cc(OC)c12 [Example A39, N-ethyl-2-(6-fluoro-4-methoxy-1H-indazol-3-yl)-N-methylethan-1-amine] | 78 | 375 | 75 | 116 | 0
7 | COc1ccc(F)c2[nH]nc(CCN3CCC4CC43)c12 (stereo not drawn) [Example A49, 3-(2-(2-azabicyclo[3.1.0]hexan-2-yl)ethyl)-7-fluoro-4-methoxy-1H-indazole] | 59 | 166 | 69 | 216 | 7
8 | CCN(C)CCc1n[nH]c2cc(F)cc(F)c12 [Example A29, 2-(4,6-difluoro-1H-indazol-3-yl)-N-ethyl-N-methylethan-1-amine] | 70 | 1480 | 33 | 687 | 0
9 | COc1cc(F)cc2[nH]nc(CCN3CCC4CC43)c12 (stereo not drawn) [Example A43, 3-(2-(2-azabicyclo[3.1.0]hexan-2-yl)ethyl)-6-fluoro-4-methoxy-1H-indazole] | 99 | 39.9 | 89 | 29.7 | 102
10 | COc1cccc(CNCCc2n[nH]c3ccc(OC)cc23)c1 [Example A66, 2-(5-methoxy-1H-indazol-3-yl)-N-(3-methoxybenzyl)ethan-1-amine] | 53 | 1260 | 63 | 50 | 0
11 | CCN(C)CCc1n[nH]c2ccc(F)c(OC)c12 [Example A2, N-ethyl-2-(5-fluoro-4-methoxy-1H-indazol-3-yl)-N-methylethan-1-amine] | 86 | 15.5 | 87 | 31.5 | 57
12 | COc1cc2c(CCN3CCC3)n[nH]c2cc1F [Example A56, 3-(2-(azetidin-1-yl)ethyl)-6-fluoro-5-methoxy-1H-indazole] | 50 | 3070 | 90 | 105 | 11
13 | CN(C)CCc1n[nH]c2ccc(F)cc12 [Example A17, 2-(5-fluoro-1H-indazol-3-yl)-N,N-dimethylethan-1-amine] | 80 | 34 | 82 | 167 | 25
14 | CN(CCc1n[nH]c2ccc(F)cc12)C1CC1 [Example A20, N-(2-(5-fluoro-1H-indazol-3-yl)ethyl)-N-methylcyclopropanamine] | 83 | 206 | 45 | 419 | 1
15 | COc1ccc2[nH]nc(CCNCc3ccccc3)c2c1 [Example A62, N-benzyl-2-(5-methoxy-1H-indazol-3-yl)ethan-1-amine] | 85 | 179 | 81 | 29.1 | 0
16 | COc1ccc2[nH]nc(CCN(C)C(C)C)c2c1F [Example A11, N-(2-(4-fluoro-5-methoxy-1H-indazol-3-yl)ethyl)-N-methylpropan-2-amine] | 22 | > 10000 | 64 | 1380 | 0
17 | COc1cc2c(CCN(C)C3CC3)n[nH]c2cc1F [Example A8, N-(2-(6-fluoro-5-methoxy-1H-indazol-3-yl)ethyl)-N-methylcyclopropanamine] | 102 | 507 | 71 | 208 | 6
18 | COc1cc2c(CCN3CCC3C)n[nH]c2cc1F (stereo not drawn) [Example A58, 6-fluoro-5-methoxy-3-(2-(2-methylazetidin-1-yl)ethyl)-1H-indazole] | 19 | > 10000 | 57 | 1130 | 0
19 | CCN(C)CCc1n[nH]c2ccc(F)cc12 [Example A18, N-ethyl-2-(5-fluoro-1H-indazol-3-yl)-N-methylethan-1-amine] | 79 | 128 | 55 | 264 | 16
20 | CCN(C)CCc1n[nH]c2ccc(F)c(F)c12 [Example A70, 2-(4,5-difluoro-1H-indazol-3-yl)-N-ethyl-N-methylethan-1-amine] | 76 | 226 | 78 | 383 | 0
21 | CN(C)CCc1n[nH]c2cccc(F)c12 [Example A13, 2-(4-fluoro-1H-indazol-3-yl)-N,N-dimethylethan-1-amine] | 48 | 944 | 55 | 2050 | 0
22 | COc1c(F)ccc2[nH]nc(CCN(C)C(C)C)c12 [Example A3, N-(2-(5-fluoro-4-methoxy-1H-indazol-3-yl)ethyl)-N-methylpropan-2-amine] | 80 | 170 | 76 | 96.5 | 17
23 | COc1cc2c(CCN3CCC4CC43)n[nH]c2cc1F (stereo not drawn) [Example A60, 3-(2-(2-azabicyclo[3.1.0]hexan-2-yl)ethyl)-6-fluoro-5-methoxy-1H-indazole] | 90 | 255 | 92 | 8.12 | 89
24 | CCN(C)CCc1n[nH]c2ccc(OC)c(F)c12 [Example A10, N-ethyl-2-(4-fluoro-5-methoxy-1H-indazol-3-yl)-N-methylethan-1-amine] | 68 | 2860 | 69 | 831 | 1
